Results from article PMC4557752, “EST-based in silico identification and in vitro test of antimicrobial peptides in Brassica napus” (BMC Genomics, 2015).

Key:
E. coli ATCC2592 = experiment: radial diffusion assay against E. coli (G- strain); type: cell-based, Escherichia coli; parameters: G- strain halo diameter: unit not given here; conditions: for G- strain halo diameter: radial diffusion, E. coli ATCC2592 approx 2 x 10^6 cfu/mL in 1 % agarose underlay gel, 3.5 mm holes, 100 μL AMP sample, 37 °C 12 h, diameter of clear zone, performed in triplicate, '-' = no zone
Procedure: (§1) Purified His-EDDIE-AMPs inclusion bodies were refolded by rapid 1:50 dilution in an optimized refolding buffer (500 mM NaCl, 20 mM Tris, 2 mM EDTA, 5 % glycerol, 10 mM DTT, 0.01 % Tween-20, pH 7.5) and incubated at an appropriate temperature without stirring. During refolding, EDDIE restored its correct conformation and self-cleaved at the specific sites, releasing AMPs from the fusion bodies. Renatured protein solution was then clarified by centrifugation at 15,000 x g at 4 °C for 30 min. The insoluble sample was removed by filtering through a 0.45 μm membrane, leaving the AMPs in the supernatant. The supernatants were transferred to a Ni-NTA His-bind column for purification.
(§2) The antimicrobial activities of recombinant AMPs were detected using a radial diffusion assay. E. coli ATCC2592 and M. luteus ACCC11001 were grown on the mid-logarithmic phase and washed. Approximately 2 × 10^6 cfu/mL bacteria were incorporated into a thin (1.2 mm) agarose underlay gel containing 1 % (w/v) agarose. Holes with 3.5 mm diameter were punched into the solidified agarose and were filled with 100 μL of AMP sample. After the plates were incubated at 37 °C for 12 h, the diameter of the clear zone surrounding each well was measured to evaluate the antimicrobial activity. The refolding buffer was used as negative controls. The above assays were performed in triplicate.

M. luteus ACCC11001 = experiment: radial diffusion assay against M. luteus (G+ strain); type: cell-based, Micrococcus luteus; parameters: G+ strain halo diameter: unit not given here; conditions: for G+ strain halo diameter: radial diffusion, M. luteus ACCC11001 approx 2 x 10^6 cfu/mL in 1 % agarose underlay gel, 3.5 mm holes, 100 μL AMP sample, 37 °C 12 h, diameter of clear zone, performed in triplicate, '-' = no zone
Procedure: as §1, §2

S. sclerotiorum = experiment: antifungal radial diffusion assay on potato plates; type: cell-based, Sclerotinia sclerotiorum; conditions: PDA/potato plates, 200 μL sample beside the fungi, 22 °C 72 h; refolding buffer control
Procedure: as §1
The antifungal activity of the purified products was assayed using an ultra-sensitive radial diffusion method on thin potato plates (200 g potato, 20 g glucose, 15–20 g agar powder, 1 L double-distilled water) seeded with filamentous fungi. Briefly, 9-cm plates were poured with an underlay potato medium, and S. sclerotiorum on a 1-cm diameter potato medium were seeded on the center of the plates, which were then incubated at 22 °C until hypha grew to 2 cm in diameter. Two hundred microliters of the test sample and negative control (refolding buffer) was placed beside the filamentous fungi, and the plates were incubated at 22 °C for 72 h; the size of the clear area around the filamentous fungi was then measured.

Sequence | G- strain halo diameter (E. coli ATCC2592) | G+ strain halo diameter (M. luteus ACCC11001) | growth of the filamentous fungal strain S. sclerotiorum (in words) (S. sclerotiorum) | antimicrobial activity to Gram positive strains (in words) (M. luteus ACCC11001; radial diffusion assay, M. luteus, refolding buffer as negative control) | antimicrobial activity to Gram negative strains (in words) (E. coli ATCC2592; radial diffusion assay, E. coli, refolding buffer as negative control)
AITCGTVTSSLAPCATLSSSGGEMPPPLCGGCAGVKKLNGMAQTTADRQ [Bn7, recombinant B. napus AMP candidate, 49 aa] | 1.311 |  |  |  | 
ALTCGTVNSNVAPCIGYITQGGPLPGACCTG [Bn27, recombinant B. napus AMP candidate, 31 aa] | 1.756 | 2.044 |  |  | 
ALTCGTVNSNVARALAILPRGDRCPERAAPAKAN [Bn26, recombinant B. napus AMP candidate, 34 aa] | 1.533 | 1.489 |  |  | 
AVTCNNVVGDLYPCLSYVMRGGNAPSTNCCNGVRTLNSQAQTTADRQSVCRCIKNA [Bn21, recombinant B. napus AMP candidate, 56 aa] | 1.711 | 1.867 |  |  | 
CAPNHCCSQFGYCGTNDAHCGAGCKS [Bn29, recombinant B. napus AMP candidate] | 1.7 |  |  |  | 
CASGVGCSQYGYCGNGPDYCG [Bn28, recombinant B. napus AMP candidate, 21 aa] | 0.867 | 1.089 |  |  | 
EQCGRQAGGALCPNGLCCSNLAGAAIPNRIANRPVARASVAA [Bn2, recombinant B. napus AMP candidate, 42 aa] | 1.189 | 1.067 |  |  | 
EQCGRRRVERCSRMAVLCEFGWCGDTEPYCKQTGCQSQCGG [Bn3, recombinant B. napus AMP candidate, 41 aa] | 1.867 | 1.811 |  |  | 
GKPSGSEKDKDKKKQPITRSARAGLQFPVGRVHRLLK [Bn5, recombinant B. napus AMP candidate, 37 aa] | 1.711 | 2.2 |  |  | 
GRKAGGPKNKSVSKSIKAGLQFPVGRITRFLKKGRYAQRLGGERREIRLLTKPE [Bn1, recombinant B. napus AMP candidate, 54 aa] | 1.256 | 1.633 |  |  | 
IQCGKFFSCSEINTCCCLFKCGKYYFGWGCCPLEASTCCDDNTSCCP [Bn22, recombinant B. napus AMP candidate] | 0.433 |  |  |  | 
KECEERSRQSRSFSVICKYDYACQNHCINLEKADGGQCNSRSPTAKCICYFQC [Bn8, recombinant B. napus AMP candidate, 53 aa] | 1.656 | 2.056 |  |  | 
KTCCPTTTARRIFDSCYGPSVPLTFCARISGCHLFPQSTTCPPEFP [Bn18, recombinant B. napus AMP candidate, 46 aa] | 1.978 | 0.107 |  |  | 
KTHEEKSKTYRRLCVDETGCNHACIFNEHFAGGHCRHLECFC [Bn17, recombinant B. napus AMP candidate, 42 aa] | 0.467 | 0.178 |  |  | 
LQFPVGRISRYLKKGRYAIRYGAGAP [Bn30, recombinant B. napus AMP candidate, 26 aa] | 1.289 | 1.4 | grow normally |  | 
NICCSQYGYCGTTADYCSPDNNCQSNC [Bn15, recombinant B. napus AMP candidate, 27 aa] |  | 0.944 |  |  | 
NQCGQFVSGALINTCCCLFKCG [Bn23, recombinant B. napus AMP candidate, 22 aa] | 0.756 | 1.233 |  |  | 
NWCGGKCEVRCKDVGMNDRCLKYCGICCKECKC [Bn20, recombinant B. napus AMP candidate, 33 aa] | 1.489 | 1.089 |  |  | 
PPTQNPSMAPPTQNPYGQPMAPPTQNPYGQPMAPP [Bn19, recombinant B. napus AMP, 35 aa; new member of the proline-rich antimicrobial peptide family, similar to SP-B] | 3.011 | 3.022 |  | highest activities | highest activities
QNCGCAPNLCCSQFGYCGSTDAYRDWLP [Bn25, recombinant B. napus AMP candidate, 28 aa] | 1.567 | 0.367 |  |  | 
RCREASRKKVCYRAGGSCCAKCQCVPPGTSGNTASCPCYANLRTHGNKLKCP [Bn4, recombinant B. napus AMP candidate, 52 aa] | 2.122 | 2.167 |  |  | 
RMCETSSQLFNGPCLSTNCANICQNEGFPDGDCKGFRLRCICNRPC [Bn13, recombinant B. napus AMP candidate, 46 aa] | 2.222 | 1.722 |  |  | 
RTCESRSHRFKGPCVSENNCANVCHT [Bn24, recombinant B. napus AMP candidate, 26 aa] |  | 0.967 |  |  | 
RVCNTQSHHYRGPCWRNHNCAMVCRTEGFSGGDCVGIPRRCYCTKRC [Bn16, recombinant B. napus AMP candidate, 47 aa] |  | 1.322 |  |  | 
VVCDKSYTCPDKSTCCCVSESKGKCDSWGCCPFESATCCENGSSCCP [Bn10, recombinant B. napus AMP candidate, 47 aa] | 1.722 | 1.2 |  |  | 
YVCTRVDCSGRCKGRCNKSSRPNLCLRACNSCCFRCNCVPPPGTHGNHHLRPCYASITT [Bn14, recombinant B. napus AMP candidate, 59 aa] | 2.589 | 2.489 |  |  | 
